# Article PMC6329299 (The pharmacogenomics journal, 2015)
# Substitutions are numbered along the chain they refer to. Counter-ions that a name gives are not always drawn.
# T1: wild type (WT) CES1 (Homo sapiens, UniProt P23141)
# T1 sequence (P23141 18-568 isoform P23141-2 limits assumed): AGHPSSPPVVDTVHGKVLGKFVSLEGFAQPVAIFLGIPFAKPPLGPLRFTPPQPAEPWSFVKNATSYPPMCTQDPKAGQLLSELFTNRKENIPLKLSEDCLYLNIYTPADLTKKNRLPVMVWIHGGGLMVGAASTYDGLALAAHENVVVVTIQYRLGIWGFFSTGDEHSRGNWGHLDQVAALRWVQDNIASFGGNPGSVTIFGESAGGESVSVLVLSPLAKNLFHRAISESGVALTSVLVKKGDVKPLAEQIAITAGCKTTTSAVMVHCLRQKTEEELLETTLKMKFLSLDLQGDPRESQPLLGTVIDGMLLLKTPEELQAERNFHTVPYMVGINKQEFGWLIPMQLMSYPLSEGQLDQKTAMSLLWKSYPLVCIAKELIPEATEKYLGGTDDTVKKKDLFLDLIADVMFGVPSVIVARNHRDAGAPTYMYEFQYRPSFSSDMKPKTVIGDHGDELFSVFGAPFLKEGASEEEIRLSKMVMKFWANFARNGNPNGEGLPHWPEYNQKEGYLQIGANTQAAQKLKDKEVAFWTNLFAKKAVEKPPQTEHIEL
# T2: CES1 variant G143E (Homo sapiens, UniProt P23141, G142E)
# T2 sequence (P23141 18-568 isoform P23141-2 G143E limits assumed): T1 sequence (P23141 18-568 isoform P23141-2 limits assumed) with G126E
# B1: wild type (WT) CES1 (Homo sapiens) (protein)
# chain: T1 sequence (P23141 18-568 isoform P23141-2 limits assumed)
# Legend:
# [1] = Hydrolysis by human kidney s9 fractions; assay type: in vitro ADME; details: substrate 100 μM, 3 concentrations of HKS9
# [2] = Hydrolysis by human intestine s9 fractions; assay type: in vitro ADME; details: substrate 100 μM, 3 concentrations of HIS9
# [3] = Hydrolysis; details: for Vmax: HLS9, PBS pH 7.4, 37 °C, unit for ACEIs other than enalapril; for Km: human, pooled human liver s9 fractions (HLS9), pH 7.4; for Hydrolysis to active metabolite by human liver s9 fractions: prodrug 100 μM, 3 concentrations of HLS9
# [4] = biological target: T1, wild type (WT) CES1; details: prodrug 100 μM, 3 concentrations of cell s9
# [5] = biological target: T2, CES1 variant G143E; assay: Hydrolysis by s9 fractions of cells stably expressing the CES1 variant G143E; details: prodrug 100 μM, 3 concentrations of cell s9
# [6] = ref [24]; cited from earlier work
# [7] = biological target: T2, CES1 variant G143E; details: in vitro function study; ref [13], [15], [22], [23]; cited from earlier work
# [8] = Japanese cancer patients receiving irinotecan; ref [21]; cited from earlier work
# [9] = after oseltamivir; ref [26]; cited from earlier work
# [10] = ref [20]; cited from earlier work
# [11] = test system: CES1 in individual human liver s9 fractions; assay type: in vitro ADME; details: CES1 expression comparable to pooled HLS9
# [12] = substrate: CCOC(=O)[C@H](CCc1ccccc1)N[C@@H](C)C(=O)N1[C@H](C(=O)O)C[C@@H]2CCC[C@@H]21; assay: not read; details: other: WT CES1 cell s9; pH 7.4
# [13] = substrate: CCOC(=O)[C@H](CCc1ccccc1)N[C@@H](C)C(=O)N1Cc2cc(OC)c(OC)cc2C[C@H]1C(=O)O; assay: not read; details: other: WT CES1 cell s9; pH 7.4
# [14] = substrate: CCC(=O)O[C@@H](O[P@](=O)(CCCCc1ccccc1)CC(=O)N1C[C@H](C2CCCCC2)C[C@H]1C(=O)O)C(C)C; assay: not read; details: other: WT CES1 cell s9; pH 7.4
# [15] = substrate: CCOC(=O)[C@H](CCc1ccccc1)N[C@@H](C)C(=O)N1CCC[C@H]1C(=O)O; assay: not read; details: other: WT CES1 cell s9; pH 7.4
# [16] = substrate: CCC[C@H](N[C@@H](C)C(=O)N1[C@H](C(=O)O)C[C@@H]2CCCC[C@@H]21)C(=O)OCC; assay: not read; details: other: WT CES1 cell s9; pH 7.4
molecule,measurement,setting,value
"CCC(=O)O[C@@H](O[P@](=O)(CCCCc1ccccc1)CC(=O)N1C[C@H](C2CCCCC2)C[C@H]1C(=O)O)C(C)C [Fosinopril, Fosinopril sodium salt]",Hydrolysis by human kidney s9 fractions,[1],No appreciable activation
same,Hydrolysis by human intestine s9 fractions,[2],No appreciable activation
same,Vmax,[3],1.4 ± 0.2 nmole/min/mg protein
same,Km,[3],471 ± 212 µM
same,Hydrolysis to active metabolite by human liver s9 fractions,[3],efficiently hydrolyzed
"CCOC(=O)[C@H](CCc1ccccc1)N[C@@H](C)C(=O)N1Cc2cc(OC)c(OC)cc2C[C@H]1C(=O)O [Moexipril, moexipril hydrochloride]",Hydrolysis by human kidney s9 fractions,[1],No appreciable activation
same,Hydrolysis by human intestine s9 fractions,[2],No appreciable activation
same,Vmax,[3],4.4 ± 0.3 nmole/min/mg protein
same,Km,[3],1460 ± 266 µM
same,Hydrolysis to active metabolite by human liver s9 fractions,[3],efficiently hydrolyzed
"CC(=O)Oc1ccc([N+](=O)[O-])cc1 [PNPA, p-nitrophenyl acetate]",Hydrolysis by human kidney s9 fractions,[1],readily hydrolyzed
same,Hydrolysis by human intestine s9 fractions,[2],readily hydrolyzed
"CCC[C@H](N[C@@H](C)C(=O)N1[C@H](C(=O)O)C[C@@H]2CCCC[C@@H]21)C(=O)OCC [Perindopril, perindopril erbumine]",Hydrolysis by human kidney s9 fractions,[1],No appreciable activation
same,Hydrolysis by human intestine s9 fractions,[2],No appreciable activation
same,Vmax,[3],18.1 ± 0.8 nmole/min/mg protein
same,Km,[3],1770 ± 165 µM
same,Hydrolysis to active metabolite by human liver s9 fractions,[3],efficiently hydrolyzed
"CCOC(=O)[C@H](CCc1ccccc1)N[C@@H](C)C(=O)N1[C@H](C(=O)O)C[C@@H]2CCC[C@@H]21 [Ramipril, ramipril]",Hydrolysis to active metabolite by WT CES1,[4],readily hydrolyzed
same,Hydrolysis by human kidney s9 fractions,[1],No appreciable activation
same,Hydrolysis by human intestine s9 fractions,[2],No appreciable activation
same,Vmax,[3],18.1 ± 0.7 nmole/min/mg protein
same,Km,[3],690 ± 61.8 µM
same,Hydrolysis to active metabolite by human liver s9 fractions,[3],efficiently hydrolyzed
same,Active metabolite after incubation with CES1 variant G143E,[5],not detected
COC(=O)[C@H](c1ccccc1Cl)N1CC[C@@H](S)/C(=C\C(=O)O)C1 [clopidogrel active metabolite],concentrations higher in patients carrying heterozygous 143E relative to 143GG,[6],approximately 60%
COC(=O)[C@H](c1ccccc1Cl)N1CCc2sccc2C1 [clopidogrel],Function of the G143E variant for metabolism of the substrate,[7],loss-of-function
CCc1c2c(nc3ccc(OC(=O)N4CCC(N5CCCCC5)CC4)cc13)-c1cc3c(c(=O)n1C2)COC(=O)[C@]3(O)CC [irinotecan],"median AUC ratios of metabolites SN-38 and SN-38G to parent compound, higher in CES1P1VAR heterozygous and homozygous patients vs CES1P1/CES1P1",[8],24%
COC(=O)C(c1ccccc1)C1CCCCN1 (centres unmarked) [methylphenidate],Function of the G143E variant for metabolism of the substrate,[7],loss-of-function
CCC(CC)O[C@@H]1C=C(C(=O)O)C[C@H](N)[C@H]1NC(C)=O [oseltamivir carboxylate],mean Cmax lower in 143E heterozygotes than in non-carriers,[9],17.5%
CCOC(=O)C1=C[C@@H](OC(CC)CC)[C@H](NC(C)=O)[C@@H](N)C1 [oseltamivir],Metabolism in healthy subjects with different CES1/CES1VAR genotypes,[10],not significantly different
CCOC(=O)[C@H](CCc1ccccc1)N[C@@H](C)C(=O)N1[C@H](C(=O)O)C[C@H]2CCCC[C@@H]21 [trandolapril],CES1 activity in the null-CES1 liver samples (some G143E non-carriers),[11],inactive
same,Function of the G143E variant for metabolism of the substrate,[7],loss-of-function
B1,Km,[12],245.6 ± 39.9 µM
same,Vmax,[12],11.6 ± 0.6 nmole/min/mg protein
same,Vmax/Km,[12],47.1 μl/min/mg protein
same,Km,[13],143.6 ± 24.5 µM
same,Vmax,[13],1.8 ± 0.1 nmole/min/mg protein
same,Vmax/Km,[13],12.4 μl/min/mg protein
same,Km,[14],276.1 ± 83.2 µM
same,Vmax,[14],1.6 ± 0.1 nmole/min/mg protein
same,Vmax/Km,[14],5.7 μl/min/mg protein
same,Km,[15],36.6 ± 4.5 µM
same,Vmax,[15],389.0 ± 16.1 pmole/min/mg protein
same,Vmax/Km,[15],10.6 μl/min/mg protein
same,Km,[16],477.5 ± 60.9 µM
same,Vmax,[16],8.3 ± 0.4 nmole/min/mg protein
same,Vmax/Km,[16],17.4 μl/min/mg protein
